Several values for one entry are separate records, joined by “and”; a condition that tells them apart may be missing. Identical values can stand only once. Toxic doses and inconclusive results are not listed.
Test system: L1210 leukemia ip in BDF1 mice, survival T/C
Assay: NCI In Vivo Anticancer Drug Screen. Data for tumor model L1210 Leukemia (intraperitoneal) in B6D2F1 (BDF1) mice
Details: endpoint: mean survival time, higher = longer survival
Summary of the method: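 Value reflects the ratio of survival in compound-treated mice to survival in vehicle-treated controls, with both groups carrying the same transplanted tumor.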

[1] = dose: 100.0 mg/kg/injection, schedule: Q01DX001 (ip), vehicle: carboxymethylcellulose (CMC)
[2] = dose: 200.0 mg/kg/injection, schedule: Q01DX001 (ip), vehicle: carboxymethylcellulose (CMC)
[3] = dose: 400.0 mg/kg/injection, schedule: Q01DX001 (ip), vehicle: carboxymethylcellulose (CMC)
[4] = dose: 50.0 mg/kg/injection, schedule: Q01DX001 (ip), vehicle: carboxymethylcellulose (CMC)
[5] = dose: 100.0 mg/kg/injection, schedule: Q04DX003 (ip), vehicle: saline with Tween-80
[6] = dose: 200.0 mg/kg/injection, schedule: Q04DX003 (ip), vehicle: saline with Tween-80
[7] = dose: 400.0 mg/kg/injection, schedule: Q04DX003 (ip), vehicle: saline with Tween-80
[8] = dose: 100.0 mg/kg/injection, schedule: Q04DX003 (ip), vehicle: saline
[9] = dose: 200.0 mg/kg/injection, schedule: Q04DX003 (ip), vehicle: saline
[10] = dose: 400.0 mg/kg/injection, schedule: Q04DX003 (ip), vehicle: saline
[11] = dose: 25.0 mg/kg/injection, schedule: Q01DX009 (ip), vehicle: saline
[12] = dose: 50.0 mg/kg/injection, schedule: Q01DX009 (ip), vehicle: saline
[13] = dose: 100.0 mg/kg/injection, schedule: Q01DX009 (ip), vehicle: saline
[14] = dose: 100.0 mg/kg/injection, schedule: Q01DX009 (ip), vehicle: Klucel (hydroxypropylcellulose) (HPC)
[15] = dose: 200.0 mg/kg/injection, schedule: Q01DX009 (ip), vehicle: Klucel (hydroxypropylcellulose) (HPC)
[16] = dose: 400.0 mg/kg/injection, schedule: Q01DX009 (ip), vehicle: Klucel (hydroxypropylcellulose) (HPC)
[17] = dose: 50.0 mg/kg/injection, schedule: Q01DX001 (ip), vehicle: saline
[18] = dose: 100.0 mg/kg/injection, schedule: Q01DX001 (ip), vehicle: saline
[19] = dose: 200.0 mg/kg/injection, schedule: Q01DX001 (ip), vehicle: saline
[20] = dose: 400.0 mg/kg/injection, schedule: Q01DX001 (ip), vehicle: saline
[21] = dose: 100.0 mg/kg/injection, schedule: Q01DX009 (ip), vehicle: saline with Tween-80
[22] = dose: 200.0 mg/kg/injection, schedule: Q01DX009 (ip), vehicle: saline with Tween-80
[23] = dose: 200.0 mg/kg/injection, schedule: Q01DX009 (ip), vehicle: saline
[24] = dose: 400.0 mg/kg/injection, schedule: Q01DX009 (ip), vehicle: saline
[25] = dose: 100.0 mg/kg/injection, schedule: Q04DX002 (ip), vehicle: Klucel (hydroxypropylcellulose) (HPC)
[26] = dose: 200.0 mg/kg/injection, schedule: Q04DX002 (ip), vehicle: Klucel (hydroxypropylcellulose) (HPC)
[27] = dose: 400.0 mg/kg/injection, schedule: Q04DX002 (ip), vehicle: Klucel (hydroxypropylcellulose) (HPC)

## Oc1cc(N2CC2)c(O)cc1N1CC1
dose: 0.3 mg/kg/injection, schedule: Q01DX009 (ip), vehicle: saline
  T/C: 154 % of control
dose: 0.5 mg/kg/injection, schedule: Q01DX009 (ip), vehicle: saline
  T/C: 118 % of control

## O=C(/C(=C/c1ccc(F)cc1)c1ccccc1)c1ccc(O)cc1
[1]
  T/C: 92 % of control
[2]
  T/C: 110 % of control
[3]
  T/C: 94 % of control

## O=C(CNC(=O)OCc1ccccc1)NCCCCCCNCCCCCCNC(=O)CNC(=O)OCc1ccccc1
dose: 1.25 mg/kg/injection, schedule: Q01DX Z (ip), vehicle: saline
  T/C: 93 % of control
dose: 2.5 mg/kg/injection, schedule: Q01DX Z (ip), vehicle: saline
  T/C: 93 % of control
dose: 5.0 mg/kg/injection, schedule: Q01DX Z (ip), vehicle: saline
  T/C: 94 % of control
dose: 10.0 mg/kg/injection, schedule: Q01DX Z (ip), vehicle: saline
  T/C: 93 % of control

## CC(=O)CCP(C)(=O)O
dose: 100.0 mg/kg/injection, schedule: Q04DX002 (ip), vehicle: saline with Tween-80
  T/C: 95 % of control
dose: 200.0 mg/kg/injection, schedule: Q04DX002 (ip), vehicle: saline with Tween-80
  T/C: 92 % of control
dose: 400.0 mg/kg/injection, schedule: Q04DX002 (ip), vehicle: saline with Tween-80
  T/C: 104 % of control

## C=CCCCCCCC=C
[4]
  T/C: 93 % of control
[2]
  T/C: 88 % of control
[3]
  T/C: 93 % of control

## O=P(O)(c1ccccc1)c1cccc(Cl)c1
[5]
  T/C: 100 % of control
[6]
  T/C: 91 % of control
[7]
  T/C: 94 % of control

## OC(c1ccccc1)c1ccccn1 (stereo unspecified)
[8]
  T/C: 92 % of control
[9]
  T/C: 115 % of control
[10]
  T/C: 101 % of control

## Cc1ccc(C(=O)C[n+]2cccc3ccccc32)c(C)c1
dose: 25.0 mg/kg/injection, schedule: Q04DX002 (ip), vehicle: saline with Tween-80
  T/C: 93 % of control

## OCC#CC#CCO
[11]
  T/C: 95 % of control
[12]
  T/C: 115 % of control
[13]
  T/C: 105 % of control
[8]
  T/C: 103 % of control

## COc1ccc(NC(=O)Oc2ccc(F)cc2Cl)c(OC)c1
[14]
  T/C: 97 % of control
[15]
  T/C: 95 % of control
[16]
  T/C: 101 % of control

## CC(=O)Nc1ccc2c(=O)cc[nH]c2n1
[17]
  T/C: 89 % of control
[18]
  T/C: 93 % of control
[19]
  T/C: 106 % of control
[20]
  T/C: 95 % of control

## Cc1ccc(S(=O)(=O)Nc2ccc(I)c(Cl)c2Cl)cc1
[21]
  T/C: 101 % of control
[22]
  T/C: 104 % of control
dose: 400.0 mg/kg/injection, schedule: Q01DX009 (ip), vehicle: saline with Tween-80
  T/C: 110 % of control

## O=C(CCCC(=O)N/N=C/c1cc([N+](=O)[O-])ccc1O)N/N=C\c1cc([N+](=O)[O-])ccc1O
[17]
  T/C: 96 % of control
[18]
  T/C: 104 % of control
[19]
  T/C: 102 % of control
[20]
  T/C: 98 % of control

## COc1ccc(/C=C(\C#N)c2ccc(C)cc2)cc1OC
[5]
  T/C: 102 % of control
[6]
  T/C: 100 % of control
[7]
  T/C: 100 % of control

## O=[N+]([O-])c1nncs1
dose: 6.25 mg/kg/injection, schedule: Q04DX003 (ip), vehicle: saline
  T/C: 104 % of control
dose: 12.5 mg/kg/injection, schedule: Q04DX003 (ip), vehicle: saline
  T/C: 98 % of control
dose: 25.0 mg/kg/injection, schedule: Q04DX003 (ip), vehicle: saline
  T/C: 101 % of control

## NC(Cc1cc(I)c(O)c(I)c1)C(=O)O (stereo unspecified)
dose: 12.5 mg/kg/injection, schedule: Q01DX009 (ip), vehicle: carboxymethylcellulose (CMC)
  T/C: 101 % of control
dose: 25.0 mg/kg/injection, schedule: Q01DX009 (ip), vehicle: carboxymethylcellulose (CMC)
  T/C: 99 % of control
[11]
  T/C: 92 % of control
dose: 25.0 mg/kg/injection, schedule: Q04DX003 (ip), vehicle: carboxymethylcellulose (CMC)
  T/C: 101 % of control
dose: 50.0 mg/kg/injection, schedule: Q01DX009 (ip), vehicle: carboxymethylcellulose (CMC)
  T/C: 90 % of control
[12]
  T/C: 112 % of control
dose: 50.0 mg/kg/injection, schedule: Q04DX003 (ip), vehicle: carboxymethylcellulose (CMC)
  T/C: 100 % of control
dose: 100.0 mg/kg/injection, schedule: Q01DX009 (ip), vehicle: carboxymethylcellulose (CMC)
  T/C: 99 % of control
[13]
  T/C: 108 % of control
dose: 100.0 mg/kg/injection, schedule: Q04DX003 (ip), vehicle: carboxymethylcellulose (CMC)
  T/C: 96 % of control
dose: 200.0 mg/kg/injection, schedule: Q01DX009 (ip), vehicle: carboxymethylcellulose (CMC)
  T/C: 91 % of control
[23]
  T/C: 108 % of control
dose: 200.0 mg/kg/injection, schedule: Q04DX003 (ip), vehicle: carboxymethylcellulose (CMC)
  T/C: 92 % of control
[24]
  T/C: 95 % of control
dose: 400.0 mg/kg/injection, schedule: Q04DX003 (ip), vehicle: carboxymethylcellulose (CMC)
  T/C: 100 % of control

## CC(CCCN(CCCl)CCCl)Nc1ccnc2cc(Cl)ccc12 (stereo unspecified)
dose: 5.0 mg/kg/injection, schedule: Q01DX001 (ip), vehicle: saline
  T/C: 119 % of control
dose: 10.0 mg/kg/injection, schedule: Q01DX001 (ip), vehicle: saline
  T/C: 105 % of control

## OCCC#CCCCOC1CCCCO1 (stereo unspecified)
[25]
  T/C: 105 % of control
[26]
  T/C: 90 % of control
[27]
  T/C: 93 % of control

## CC1(C)C=CN(c2ccc(Cl)cc2)C(=O)O1
dose: 100.0 mg/kg/injection, schedule: Q04DX002 (ip), vehicle: gum acacia
  T/C: 103 % of control
dose: 200.0 mg/kg/injection, schedule: Q04DX002 (ip), vehicle: gum acacia
  T/C: 97 % of control
dose: 400.0 mg/kg/injection, schedule: Q04DX002 (ip), vehicle: gum acacia
  T/C: 87 % of control

## COc1ccc(C(=O)CC(Sc2ccccc2N)c2ccc(OC)cc2)cc1 (stereo unspecified)
[14]
  T/C: 87 % of control
[25]
  T/C: 98 % of control
[15]
  T/C: 91 % of control
[26]
  T/C: 95 % of control
[16]
  T/C: 87 % of control
[27]
  T/C: 113 % of control

## CCCC(O)(CC)C1CCCC1C (stereo unspecified)
dose: 50.0 mg/kg/injection, schedule: Q01DX009 (ip), vehicle: saline with Tween-80
  T/C: 105 % of control
[21]
  T/C: 111 % of control
[22]
  T/C: 94 % of control

## O=C1C(c2c[nH]c3ccc(Br)cc23)=Nc2ccc([N+](=O)[O-])cc21
[19]
  T/C: 96 % of control
[20]
  T/C: 93 % of control

## CCOC(=O)C1CN(C(C)(C)C)C(=O)C1=O (stereo unspecified)
[17]
  T/C: 106 % of control
[18]
  T/C: 102 % of control
[19]
  T/C: 108 % of control
[20]
  T/C: 100 % of control

## C=CCNC(=S)NCc1ccc(C)cc1
[14]
  T/C: 96 % of control
[15]
  T/C: 93 % of control

## S=C(SP(SC(=S)N1CCCCC1)SC(=S)N1CCCCC1)N1CCCCC1
dose: 100.0 mg/kg/injection, schedule: Q04DX002 (ip), vehicle: saline
  T/C: 95 % of control
dose: 200.0 mg/kg/injection, schedule: Q04DX002 (ip), vehicle: saline
  T/C: 89 % of control
dose: 400.0 mg/kg/injection, schedule: Q04DX002 (ip), vehicle: saline
  T/C: 95 % of control

## Oc1ccc2ccccc2c1/C=N/N=c1\[nH][nH]/c(=N\N=C\c2c(O)ccc3ccccc23)c2ccccc12
[4]
  T/C: 95 % of control
[1]
  T/C: 93 % of control
[2]
  T/C: 98 % of control
[3]
  T/C: 87 % of control

## CC[As](=O)(O)CC
[12]
  T/C: 97 % of control
[13]
  T/C: 120 % of control
[8]
  T/C: 101 % of control
[23]
  T/C: 105 % of control
[9]
  T/C: 107 % of control

## CCCCNC(=O)NC(C)c1ccccc1 (stereo unspecified)
[25]
  T/C: 112 % of control
[26]
  T/C: 112 % of control
[27]
  T/C: 105 % of control

## CNc1nc2ccccc2n1C1OC(CO)C(O)C1O (stereo unspecified)
[18]
  T/C: 95 % of control
[19]
  T/C: 98 % of control
[20]
  T/C: 98 % of control

## Cc1ccc(S(=O)(=O)NCCCCCC(=O)OCc2ccccc2)cc1
[12]
  T/C: 97 % of control
[13]
  T/C: 94 % of control and 100 % of control
[8]
  T/C: 108 % of control
[23]
  T/C: 96 % of control and 104 % of control
[9]
  T/C: 101 % of control
[24]
  T/C: 94 % of control
[10]
  T/C: 100 % of control

Source: PubChem BioAssay AID248 (DTP/NCI, 2004)
